Data from ChEMBL document CHEMBL1255427, “Lack of a clinically relevant effect of an antacid on the pharmacokinetics of lersivirine” (Antimicrob Agents Chemother, 2010).

Assays:
[1] = AUC (infinity) in healthy human plasma at 750 mg coadministered with 20 ml of antacid by HPLC-tandem mass spectrometry method; format: ADME, organism-based; design: dose 750 mg, time infinity
[2] = Half life in healthy human plasma at 750 mg by HPLC-tandem mass spectrometry method; format: ADME, organism-based
[3] = Cmax in healthy human plasma at 750 mg after 24 hrs by HPLC-tandem mass spectrometry method; format: ADME, organism-based; design: dose 750 mg
[4] = Half life in healthy human plasma at 750 mg coadministered with 20 ml of antacid by HPLC-tandem mass spectrometry method; format: ADME, organism-based
[5] = species on record: Homo sapiens; experiment: Toxicity in healthy human assessed as death at 750 mg; format: organism-based; details: in vivo
[6] = species on record: Homo sapiens; experiment: Toxicity in healthy human assessed as serious adverse events at 750 mg; format: organism-based; details: in vivo
[7] = Cmax in healthy human plasma at 750 mg after 24 hrs coadministered with 20 ml of antacid by HPLC-tandem mass spectrometry method; format: ADME, organism-based; design: dose 750 mg
[8] = system: Homo sapiens; experiment: Toxicity in healthy human assessed as serious adverse events at 750 mg coadministered with 20 ml of antacid; format: organism-based; details: in vivo
[9] = species on record: Homo sapiens; experiment: Toxicity in healthy human assessed as gastrointestinal tract related toxicity at 750 mg; format: organism-based; details: in vivo
[10] = system: Homo sapiens; experiment: Toxicity in healthy human assessed as gastrointestinal tract related toxicity at 750 mg coadministered with 20 ml of antacid; format: organism-based; details: in vivo
[11] = species on record: Homo sapiens; experiment: Plasma concentration in healthy human plasma at 750 mg by HPLC-tandem mass spectrometry method; format: ADME, organism-based; details: in vivo
[12] = system: Homo sapiens; experiment: Toxicity in healthy human assessed as death at 750 mg coadministered with 20 ml of antacid; format: organism-based; details: in vivo
[13] = Tmax in healthy human plasma at 750 mg coadministered with 20 ml of antacid by HPLC-tandem mass spectrometry method; format: ADME, organism-based
[14] = system: Homo sapiens; experiment: Plasma concentration in healthy human plasma at 750 mg coadministered with 20 ml of antacid by HPLC-tandem mass spectrometry method; format: ADME, organism-based; details: in vivo
[15] = Tmax in healthy human plasma at 750 mg by HPLC-tandem mass spectrometry method; format: ADME, organism-based
[16] = AUC (infinity) in healthy human plasma at 750 mg by HPLC-tandem mass spectrometry method; format: ADME, organism-based; design: dose 750 mg, time infinity

AUC(0-inf) [1]: 11.2 µg·h/mL | half-life [2]: 6.91 h | Cmax [3]: 1.52 µg/mL | half-life [4]: 6.22 h | Cmax [7]: 1.45 µg/mL | Cp [11]: 0.08341 µg/mL | Tmax [13]: 2 h | Cp [14]: 0.06441 µg/mL | Tmax [15]: 5 h | AUC(0-inf) [16]: 11 µg·h/mL
Compound: CCc1nn(CCO)c(CC)c1Oc1cc(C#N)cc(C#N)c1 [LERSIVIRINE]
Activity [5]: Non-toxic | Activity [6]: Non-toxic | Activity [8]: Non-toxic | Activity [9]: Toxic | Activity [10]: Toxic | Activity [12]: Non-toxic
